Reference: patent US20190350955A1, “METHODS AND PHARMACEUTICAL COMPOSITIONS FOR THE TREATMENT OF CARDIOMYOPATHIES” (INSERM (Institut National de la Sante et de la Recherche …, priority 2016, published 2019)

Assays:
SRF^HKO mice = test: RT-qPCR gene expression in SRF HKO heart; format: in vivo, mouse
Text: Transgenic mice. All experiments with animals conformed to the Directive 2010/63/EU of the European Parliament and were approved by the ethics committee Charles Darvin #5 (agreement 00369.01). SRF^HKO mice bear the tamoxifen-inducible α-MHC-MerCrMer transgene and the Siffloxed allele (Sf/Sf) as described previously (Parlakian et al. (2005). Temporally controlled onset of dilated cardiomyopathy through disruption of the SRF gene in adult heart. Journal 112, 2930-2939; Tritsch et al. (2013). An SRF/miR-1 axis regulates NCX1 and Annexin A5 protein levels in the normal and failing heart. Journal 98, 372-380). Transgenic mice have been bred for more than 20 generations in C57BL/6N background. The mice were housed in standard animal facility (CEF. Hôpital Pitié Salpétrière, agreement A-75-13-15, 75013 Paris), under a 12-h dark/light cycle. Tamoxifen (Sigma T5648) was administrated by i.p. injection at a dose of 0.7 mg diluted in 100 μl peanut oil at day (D) 0, D1 and D2. (Sf/Sf) littermates injected with tamoxifen at the same time than mutant were used as controls.
Nicotinamide and nicotinamide riboside i.p. administration. Nicotinamide was diluted in saline at 300 mM. Nicotinamide riboside (NR) bromide salt stock solution (1M) was in 10 mM citric acid pH 6.0. For injection 3 volumes of NR stock solution was mixed extemporaneously with 7 volumes of PBS to obtain a 300 mM injectable solution at pH 7.2. Mice were injected daily at a dose of 1 μmole/g body weight.
SRF^HKO and control (Sf/Sf) mice were administered either rodent maintenance SAFE A04 diet containing 3.10% crude fat. 16.10% crude proteins. 26% starch and 1.9% sugar (Scientific Animal Food Engineering, Paris, France) or SAFE # A04 diet supplemented with NR. NR was provided by Chromadex under brand name NIAGEN (Irvine Calif. USA). The soft pellets were manually prepared every 5 days by mixing 1.65 g of NR into 500 g of powdered SAFE A04 diet and 235 ml of water to reach 2.24 mg of NR/g (wet weight). Control diet was prepared in the same way omitting NR. Mice had ad libitum access to food and water. Mice (average body weight 31.3±0.82 g, no difference between groups) consumed an average of 6 g of soft food per day, reaching a daily intake of 450 mg NR/kg. No difference in food intake was observed between SRF^HKO and control mice.
cDNAs were reverse transcribed from RNA (1.5 μg) extracted in TRIzol (Thermofisher) from cell cultures and tissues using the Superscript II Reverse Transcriptase (Life Technologies). Quantitative PCR was carried out on a Light Cycler 480 (Roche Diagnostics) using Fast Start SYBR Green Master (Roche Diagnostics). Quantification of gene expression was calculated as R=2^ΔCt(Ref Cp−target Cp), with Hprt used as a as reference. Primers were designed using the NCBI Primer-BLAST software. Primer sequences are available on request.

TAC mice = test: Myocardial NAD+ levels after TAC; format: in vivo, mouse; conditions: 6 weeks after TAC, NR treated TAC group vs non treated CD TAC group
Method: Transverse aorta constriction was performed in 2 month-old male mice under anesthesia (ketamine 100 mg/kg, xylazin 16 mg/kg). Skin was opened above the sternum and the upper part of the sternum was cut on a length of 2 mm allowing the mouse to breath without the need of a ventilator. A surgical suture was passed under the aortic cross between the right brachiocephalic (innominate) artery and left common carotid artery and a 27-½ gauge blunt needle was placed parallel to the wall of the aortic cross as a calibrator. Two loose knots were tied around the aortic cross and the needle. The first knot was quickly tied against the needle, followed by the second and the needle was promptly removed in order to produce a constriction of 0.4 mm in diameter. In sham, mice the procedure was the same except for the constriction of the aorta. NR treatment was started 2 days after the TAC or SHAM surgery.
Tissue frozen powder was resuspended in 75% ethanol, 25% HEPES 10 mM pH 7.1, buffer (20 μl/mg of tissue). Extracts were warmed 5 min at 80° C., then directly cold on ice and centrifuge 5 min at 16 000 g. Tissues extracts were normalized on the weight of tissue used for extraction. […] After adjustment of dilution factors, NADH levels were calculated by substracting the NAD^+ concentration to the non-heated ethanolic extract values: NADH=NADt (non heated)−NAD^+ (heated). […]

SMILES: NC(=O)c1ccc[n+]([C@@H]2O[C@H](CO)[C@@H](O)[C@H]2O)c1 [NR, nicotinamide riboside]
- expression level of the NADPH oxidase gene Nox4 (SRF^HKO mice; NR diet, heart of SRF HKO mice): increased
- expression level of the Nfel2 gene encoding NRF2 and its target gene metallothionein 2 (SRF^HKO mice; NR diet, heart of SRF HKO mice): increased
- expression level of G6pdx (SRF^HKO mice; SRF HKO mice under the NR diet): maintained at higher level than in controls
- Srf and Nmrk2 expression levels (SRF^HKO mice; i.p. administration from D8 to D15): not changed
- myocardial NAD+ levels (TAC mice): significantly higher
